Test results as given in patent US7115574B2, “System and method for support legacy operating system booting in a legacy-free system” (priority 2001, dated 2006).

Experiments:
[1] = test system: N9 clone of murine microglial cells; test: Northern blot of TNF-α and iNOS mRNA in activated microglia; format: cell-based; details: peptide prior to LPS and IFN-γ
Experimental: Total cellular RNA was extracted from 10^6 adherent microglial cells plated in six-well tissue culture plates (Corning). Electrophoresis of RNA samples (10 μg/lane) was performed in 1% agarose/2.2 M formaldehyde gels and the gels subsequently blotted onto nylon filters by capillary action and baked for 2 h before prehybridization. The cDNA fragments encoding murine TNF-α and mouse macrophage iNOS were ^32P-labeled using the Ready-To-Go DNA Labeling Kit (Pharmacia, Uppsala, Sweden) before hybridization of nylon filters and autoradiography. Blots were subsequently rehybridized with human glyceraldehyde-3-phosphate dehydrogenase (G-3-PDH) cDNA probe as an internal control (Clontech Laboratories, Inc., Palo Alto, Calif.).

[2] = test system: inflammation induced in the hind paw by kappa carrageenan; test: Kappa carrageenan hind paw inflammation in spinal cord intact and transected mice; format: in vivo, BALB/c mice; details: for effect on carrageenan-induced paw swelling: spinal cord transected mice; for inhibition of inflammation induced in the hind paw: central administration, spinal cord intact mice
Experimental: Because surgical dissection of trigeminal structures that innervate the ear of the mouse is very difficult, tests to learn whether descending neural pathways are essential to the anti-inflammatory activity of centrally administered α-MSH peptides were performed in mice with inflammation induced in a hind paw. In these experiments, each animal was anesthetized with pentobarbital sodium solution as above. Baseline foot pad thickness of both hind paws was measured with a spring-loaded micrometer (Swiss Precision Instruments, Los Angeles, Calif.). Paw thickness was expressed in units of 10^−3 cm; average thickness of unstimulated paws was 171.5×10^−3 cm across shipments of animals. Kappa carrageenan (Sigma) dissolved in saline (0.05%, 20 μl) was injected (28 gauge allergy test syringe) into one footpad, and saline (20 μl) was injected into the other. For the analyses, the increase in thickness of the control saline-injected paw of each animal was subtracted from that of the carrageenan-injected paw, to eliminate the influence of mechanical injury and volume of the injected fluid. […] Treatment with the locally acting steroid reduced swelling up to 29% (average, relative to saline controls) at 4.5 hr. after carrageenan.
However, a standardized crushing of lumbar vertebrae with a hemostat (Kelly) was effective in severing the cord; no deaths were caused by this treatment. […] The experiments were limited to 4.5 hr to reduce problems of bowel and bladder dysfunction. Immediately after the 4.5 hr measurements all mice were killed with an overdose of sodium pentobarbital.
Because of the size of the experiments and the requirement for several shipments of animals over time, several experiments were performed, each with complete treatment and control groups drawn from the same shipment of mice. Omnibus analysis of variance techniques (Dynastat, Washington, D.C.) were used to test overall differences among group means. Tukey's protected t test was used to compare individual means. Probability values of <0.05 were considered significant.

C. albicans [3] = test: C. albicans colony forming units (candidacidal activity); format: cell-based; details: for C. albicans colony forming units (CFU): FIG. 1, incubation 2 hours at 37° C.; for relative potency in reducing C. albicans viability: FIG. 2, 10^−4M melanocortin peptides
Experimental: C. albicans (clinical isolate) was obtained from the collection of the Department of Microbiology, Ospedale Maggiore di Milano and maintained on Sabouraud's agar slants and periodically transferred to Sabouraud's agar plates and incubated for 48 hours at 28° C. To prepare a stationary growth phase yeast, a colony was taken from the agar plate and transferred into 30 ml Sabouraud-dextrose broth and incubated for 72 hours at 32° C. Cells were centrifuged and suspended in Hank's balanced salt solution (“HBSS”) to the desired concentration. Viability, determined by the exclusion of 0.01% methylene blue, remained >98%.
C. albicans (1×10^6/ml in HBSS) was incubated in the presence or absence or α-MSH(1-13) (SEQ ID NO: 3) or (11-13) (SEQ ID NO: 1) at concentrations in the range of 10^−15 M to 10^−6 M for 2 hours at 37° C. Cells were then washed in cold distilled water and diluted with HBSS to a concentration of 100 organisms/ml. One-ml aliquots were dispensed on blood agar plates and incubated for 48 hours at 37° C. Organism viability was estimated from the number of colonies formed.
In subsequent experiments using familiar procedures we compared activity of α-MSH(4-10) (SEQ ID NO: 10), (6-13) (SEQ ID NO: 2), (11-13) (SEQ ID NO: 1), ACTH(1-39) (SEQ ID NO: 9), (18-39) (SEQ ID NO: 11) and fluconazole, the latter an established antifungal agent. Melanocortin peptides and fluconazole were tested in concentrations of 10^−6 M to 10^−4 M. There were at least six replicates for each concentration of peptide. […]

[4] = test system: carrageenan-induced swelling in rat paws; test: Rat paw edema test (carrageenan); format: in vivo, Sprague-Dawley rats; details: 100 mg/kg intraperitoneal, rats
Experimental: A second in vivo bioassay for anti-inflammatory activity was conducted in which the action of the tripeptide (SEQ ID NO: 1) was compared to that of hydrocortisone. In this assay, the two agents were given at similar doses and tested for their independent ability to inhibit carrageenan-induced swelling in rat paws. This assay, the rat paw edema test, was conducted generally as it is typically performed in the art, for example, as described by Winter et al. (1962), Proc. Soc. Exp. Biol. Med., 111:544 or in U.S. Pat. No. 4,150,137.
Briefly, the assay was performed as follows. Each of twenty-four male Sprague-Dawley rats was assigned to one of four groups: Tripeptide treatment and controls (matched according to body weight and initial paw volume), hydrocortisone treatment and matched controls. The volume of the right rear paw of the test and control animals was determined using standard procedures and a mercury displacement volumetric technique. […] One hour later 0.5 ml of 1% lambda carrageenan in saline solution was injected into the right rear paw of the animals and the paw volume was again recorded (baseline measure). For comparison of the effects of the two treatments, paw volume of experimental animals measured at hourly intervals was expressed as a percentage of the volume change of their respective matched controls.

C. albicans [5] = test: Horse serum-induced germ tube formation (germination) of C. albicans; format: cell-based; details: 10^−6M, 60 minutes at 37° C. after horse serum induction
Experimental: C. albicans from stationary phase cultures were washed twice with distilled water and suspended in HBSS to a final concentration of 2×10^6/ml. Hyphal growth was induced by addition of 10% inactivated horse serum (GIBCO/BRL, Great Britain) to yeast incubated for 45 minutes at 37° C. with continuous shaking. Horse serum was removed by washing cells twice with HBSS and incubation was continued for 60 minutes at 37° C. in the presence of α-MSH(1-13) (SEQ ID NO: 3), (6-13) (SEQ ID NO: 2) or (11-13) (SEQ ID NO: 1) at a concentration of 10^−6M with continuous shaking. The percentage of filamentous cells was evaluated under a light microscope with the aid of hemocytometer. Experiments were run in triplicate and at least 200 cells were scored. Photomicrographs were taken with a MC100 camera attached to an Axioskop Zeiss microscope.

[6] = Lipton and Catania, Immunol. Today 1997; cited from earlier work

Row | Substance | transcription levels (mRNA) for TNF-α and iNOS [1] | effect on carrageenan-induced paw swelling ([2]; given intraperitoneally) | effect on carrageenan-induced paw swelling ([2]; given intraperitoneally, listed as tripeptide) | C. albicans colony forming units (CFU) (C. albicans [3]) | relative potency in reducing C. albicans viability (C. albicans [3]) | anti-inflammatory activity (inhibition of paw edema) ([4]; between 1 and 4 hours) | decrease in paw inflammation ([4]; first hour after carrageenan injection) | reduction in the number of filamentous cells / inhibition of germ tube formation (C. albicans [5]) | reduction in the number of filamentous cells / inhibition of germ tube formation (C. albicans [5]; listed as tripeptide) | inhibition of inflammation induced in the hind paw ([2]; 3 hr) | inhibition of inflammation induced in the hind paw ([2]; 4.5 hr) | effect on carrageenan-induced paw swelling ([2]; centrally injected) | toxicity [6]
1 | Ac-Lys-Pro-Val-NH2 [α-MSH(11-13)] | decrease in transcription levels | even more effective at reducing swelling | marked inhibitory effect on inflammation | greatly reduced | most effective | nearly identical anti-inflammatory activity | no such reduction was observed | approximately 56% | 54-58% | – | – | – | –
2 | SYSMEHFRWGKPV [α-MSH(1-13)] | decrease in transcription levels | significant, although smaller, inhibitory effect | – | greatly reduced | most effective | – | – | – | – | 57% | 29% | had no effect on paw swelling | very low toxicity
